Reference: article PMC12250302, “Synthesis, Antimicrobial Activities, and Model of Action of Novel Tetralone Derivatives Containing Aminoguanidinium Moiety” (International Journal of Molecular Sciences, 2025)
Values after ≈ are worked out from the molar mass of the structure shown. Where two headings read alike, the source gives them in different places.

Columns and labels:
Assay in all cases: MIC and MBC testing, broth microdilution
S. aureus ATCC 29213 = format: cell-based, Staphylococcus aureus; settings: S. aureus ATCC 29213; for MIC: 18 h
Procedure, shortened: (§1)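 Bacteria are grown in MH broth to log phase, diluted to 1 × 10^6 CFU/mL, then added to doubling dilutions of compound. After 18 h incubation at 37 °C, the lowest concentration lacking visible growth is recorded as MIC. Each concentration is run in triplicate.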

E. faecium ATCC 35667 = format: cell-based, Enterococcus faecium; settings: E. faecium ATCC 35667; for MIC: 18 h
Procedure, shortened: as §1

E. coli ATCC 25922 = format: cell-based, Escherichia coli
Procedure, shortened: as §1

[1] = tested on: clinical S. aureus isolate LMY46; format: cell-based, Staphylococcus aureus; settings: LMY46; for MIC: 18 h
Procedure, shortened: (§2)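 Strains grown to logarithmic phase were diluted to 1 × 10^6 CFU/mL, combined with compound two-fold dilution series in MH broth, and incubated at 37 °C for 18 h. MIC and MBC were then recorded, with triplicate wells per concentration.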

[2] = tested on: clinical S. aureus isolate LMY45; format: cell-based, Staphylococcus aureus; settings: LMY45; for MIC: 18 h
Procedure, shortened: as §2

[3] = tested on: clinical S. aureus isolate LMY47; format: cell-based, Staphylococcus aureus; settings: LMY47; for MIC: 18 h
Procedure, shortened: (§3)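 Log-phase cultures, adjusted to 1 × 10^6 CFU/mL in MH broth, are exposed to twofold serial compound dilutions and held at 37 °C for 18 h. Triplicate per concentration; both inhibitory and bactericidal endpoints are taken.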

[4] = tested on: clinical S. aureus isolate LMY48; format: cell-based, Staphylococcus aureus; settings: LMY48; for MIC: 18 h
Procedure, shortened: as §2

MRSA-2 = format: cell-based, Staphylococcus aureus; settings: MRSA-2; for MIC: 18 h
Procedure, shortened: as §3

MRSA-1 = format: cell-based, Staphylococcus aureus; settings: MRSA-1; for MIC: 18 h
Procedure, shortened: as §2

[5] = tested on: K. pneumoniae ATCC 700603; format: cell-based, Klebsiella pneumoniae
Procedure, shortened: as §1

A. baumannii ATCC 19606 = format: cell-based, Acinetobacter baumannii
Procedure, shortened: as §1

P. aeruginosa ATCC 27853 = format: cell-based, Pseudomonas aeruginosa
Procedure, shortened: as §1

[6] = Staphylococcus aureus, read-out: MIC
[7] = Staphylococcus aureus, read-out: MBC

In the case of `CC(C)=CCC/C(C)=C/COc1ccc2c(c1)CCC/C2=N\NC(=N)N` [Compound 2J, 2-((E)-6-(((E)-3,7-dimethylocta-2,6-dien-1-yl)oxy)-3,4-dihydronaphthalen-1(2H)-ylidene)hydrazine-1-carboximidamide], the MIC (S. aureus ATCC 29213; Staphylococcus aureus, ATCC29213, read-out: MIC) is reported as 4 µg/mL (≈ 11.3 µM), the MBC (S. aureus ATCC 29213; Staphylococcus aureus, ATCC29213, read-out: MBC) is reported as 8 µg/mL (≈ 22.6 µM) and the MIC (E. faecium ATCC 35667; Enterococcus faecium, ATCC35667, read-out: MIC) is reported as 2 µg/mL (≈ 5.64 µM). The MBC (E. faecium ATCC 35667; Enterococcus faecium, ATCC35667, read-out: MBC) was 8 µg/mL (≈ 22.6 µM), the MIC (E. coli ATCC 25922; Escherichia coli, ATCC25922, 18 h, read-out: MIC) was 8 µg/mL (≈ 22.6 µM) and the MBC (E. coli ATCC 25922; Escherichia coli, ATCC25922, read-out: MBC) was 16 µg/mL (≈ 45.1 µM). The MIC [1, 6] was 2 µg/mL (≈ 5.64 µM), the MBC [1, 7] was > 32 µg/mL and the MIC [2, 6] was 4 µg/mL (≈ 11.3 µM). The MBC [2, 7] was 16 µg/mL (≈ 45.1 µM), the MIC [3, 6] was 2 µg/mL (≈ 5.64 µM) and the MBC [3, 7] was 16 µg/mL (≈ 45.1 µM). For the same molecule, the MIC [4, 6] was 4 µg/mL (≈ 11.3 µM), the MBC [4, 7] was 8 µg/mL (≈ 22.6 µM) and the MIC (MRSA-2; [6]) was 2 µg/mL (≈ 5.64 µM). It also gave an MBC (MRSA-2; [7]) of 16 µg/mL (≈ 45.1 µM), an MIC (MRSA-1; [6]) of 2 µg/mL (≈ 5.64 µM) and an MBC (MRSA-1; [7]) of 16 µg/mL (≈ 45.1 µM). The MIC ([5]; Klebsiella pneumoniae, ATCC700603, 18 h, read-out: MIC) was > 32 µg/mL, the MIC (A. baumannii ATCC 19606; Acinetobacter baumannii, ATCC19606, 18 h, read-out: MIC) was 8 µg/mL (≈ 22.6 µM) and the MBC (A. baumannii ATCC 19606; Acinetobacter baumannii, ATCC19606, read-out: MBC) was 16 µg/mL (≈ 45.1 µM). It also gave an MIC (P. aeruginosa ATCC 27853; Pseudomonas aeruginosa, ATCC27853, 18 h, read-out: MIC) of 32 µg/mL (≈ 90.3 µM) and an MBC (P. aeruginosa ATCC 27853; Pseudomonas aeruginosa, ATCC27853, read-out: MBC) of 32 µg/mL (≈ 90.3 µM).

For “(E)-2-(6-((2,4-dichlorobenzyl)oxy)-3,4-dihydro-1(2H)-naphthalenylidene)hydrazine-1-carboxamide [Compound 1O]”, the MBC (S. aureus ATCC 29213) was 8 µg/mL, the MIC (S. aureus ATCC 29213) was 4 µg/mL and the MBC (E. faecium ATCC 35667) was 16 µg/mL. For the same molecule, the MIC (E. faecium ATCC 35667) was 2 µg/mL, the MBC (E. coli ATCC 25922) was 16 µg/mL and the MIC (E. coli ATCC 25922; 18 h) was 8 µg/mL. For the same molecule, the MBC [1] was 8 µg/mL, the MIC [1] was 4 µg/mL and the MBC [2] was 16 µg/mL. For the same molecule, the MIC [2] was 2 µg/mL, the MBC [3] was 4 µg/mL and the MIC [3] was ≤ 1 µg/mL. The MBC [4] was 2 µg/mL, the MIC [4] was ≤ 1 µg/mL and the MBC (MRSA-2) was 8 µg/mL. It also gave an MIC (MRSA-2) of 2 µg/mL, an MBC (MRSA-1) of 16 µg/mL and an MIC (MRSA-1) of 1 µg/mL. For the same molecule, the MIC ([5]; 18 h) was >32/- µg/mL, the MBC (A. baumannii ATCC 19606) was 16 µg/mL and the MIC (A. baumannii ATCC 19606; 18 h) was 16 µg/mL. The MIC (P. aeruginosa ATCC 27853; 18 h) was >32/- µg/mL.

“(E)-2-(6-((3,4-dichlorobenzyl)oxy)-3,4-dihydro-1(2H)-naphthalenylidene)hydrazine-1-carboxamide [Compound 1P]” was tested, and the MBC (S. aureus ATCC 29213) was 8 µg/mL, the MIC (S. aureus ATCC 29213) was 2 µg/mL and the MBC (E. faecium ATCC 35667) was 8 µg/mL. For the same molecule, the MIC (E. faecium ATCC 35667) was 2 µg/mL, the MBC (E. coli ATCC 25922) was 16 µg/mL and the MIC (E. coli ATCC 25922; 18 h) was 8 µg/mL. For the same molecule, the MBC [1] was 8 µg/mL, the MIC [1] was 2 µg/mL and the MBC [2] was 4 µg/mL. The MIC [2] was 2 µg/mL, the MBC [3] was 4 µg/mL and the MIC [3] was 2 µg/mL. The MBC [4] was ≤ 1 µg/mL, the MIC [4] was ≤ 1 µg/mL and the MBC (MRSA-2) was 4 µg/mL. For the same molecule, the MIC (MRSA-2) was 2 µg/mL, the MBC (MRSA-1) was 16 µg/mL and the MIC (MRSA-1) was 1 µg/mL. The MBC [5] was 32 µg/mL, the MIC ([5]; 18 h) was 32 µg/mL and the MBC (A. baumannii ATCC 19606) was 16 µg/mL. For the same molecule, the MIC (A. baumannii ATCC 19606; 18 h) was 8 µg/mL and the MIC (P. aeruginosa ATCC 27853; 18 h) was >32/- µg/mL.

Work on “(E)-2-(6-((4-chlorobenzyl)oxy)-3,4-dihydro-1(2H)-naphthalenylidene)hydrazine-1-carboxamide [Compound 1N]” yielded an MBC (S. aureus ATCC 29213) of 4 µg/mL, an MIC (S. aureus ATCC 29213) of 2 µg/mL and an MBC (E. faecium ATCC 35667) of 8 µg/mL. The MIC (E. faecium ATCC 35667) was 2 µg/mL, the MBC (E. coli ATCC 25922) was 8 µg/mL and the MIC (E. coli ATCC 25922; 18 h) was 4 µg/mL. The MBC [1] was 8 µg/mL, the MIC [1] was 4 µg/mL and the MBC [2] was 4 µg/mL. For the same molecule, the MIC [2] was 2 µg/mL, the MBC [3] was 2 µg/mL and the MIC [3] was 2 µg/mL. For the same molecule, the MBC [4] was 16 µg/mL, the MIC [4] was 2 µg/mL and the MBC (MRSA-2) was 4 µg/mL. It also gave an MIC (MRSA-2) of 2 µg/mL, an MBC (MRSA-1) of 4 µg/mL and an MIC (MRSA-1) of 2 µg/mL. The MBC [5] was 32 µg/mL, the MIC ([5]; 18 h) was 16 µg/mL and the MBC (A. baumannii ATCC 19606) was 16 µg/mL. It also gave an MIC (A. baumannii ATCC 19606; 18 h) of 4 µg/mL, an MBC (P. aeruginosa ATCC 27853) of 32 µg/mL and an MIC (P. aeruginosa ATCC 27853; 18 h) of 16 µg/mL.
